Source: PubChem BioAssay (NCI)
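Protocol summary: plate cells (96-well), add compound at 5 concentrations, incubate 48 h, interpolate endpoints linearly. Here, GI50 denotes the concentration required for 50% inhibition of growth. TGI: total growth inhibition.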

Assays:
Test in all cases: NCI tumour cell line growth inhibition, 48 h
[1] = test system: A549 NSCLC
[2] = test system: UACC-62 melanoma
[3] = test system: OVCAR-8 ovarian
[4] = test system: HCT-15 colon
[5] = test system: EKVX NSCLC
[6] = test system: HS 578T breast
[7] = test system: HOP-62 NSCLC
[8] = test system: MALME-3M melanoma
[9] = test system: SF-539 CNS
[10] = test system: OVCAR-5 ovarian

Row | Structure (SMILES) | GI50 [1] [µM] | TGI [1] [µM] | GI50 [2] [µM] | TGI [2] [µM] | GI50 [3] [µM] | TGI [3] [µM] | GI50 [4] [µM] | TGI [4] [µM] | GI50 [5] [µM] | TGI [5] [µM] | GI50 [6] [µM] | TGI [6] [µM] | GI50 [7] [µM] | TGI [7] [µM] | GI50 [8] [µM] | TGI [8] [µM] | GI50 [9] [µM] | TGI [9] [µM] | GI50 [10] [µM] | TGI [10] [µM]
1 | C#C[C@]1(O)CC[C@H]2[C@@H]3CC=C4c5nc(N)sc5CC[C@]4(C)[C@H]3CC[C@@]21C | 4.15 | 24.8 | 2.05 | 5.2 | 9.12 | 56.1 | 3.2 | 17.3 | 5.47 | 50.9 | 2.55 | 7.94 | 3.43 | 14.7 | 2.83 | 8.98 | 1.58 | 3.56 | 11.8 | 36.9
2 | NC(=O)/C(=C/n1cnc(-c2cc(C(F)(F)F)cc(C(F)(F)F)c2)n1)c1cncnc1 | 0.552 | > 47.1 | 0.63 | 5.37 | 0.329 | 18.2 | 0.286 | 6.93 | 0.566 | 20.8 | 0.793 | 13.5 | 1.06 | 17.2 | 0.256 | 9.03 | 0.0806 | 1.45 | 0.447 | 16.2
3 | CC1OC(OC2C(O)C(O)C(O)C(O)C2O)C(N)CC1N=C(N)C(=O)O (stereo not given) |  | > 100 |  | > 100 |  | > 100 |  | > 100 |  | > 100 |  | > 100 |  | > 100 |  | > 100 |  | > 100 |  | > 100
4 | COc1ccc(C(O)c2cc3c(N)c(C(=O)Nc4cccc(Br)c4C)sc3nc2C)cc1 (stereo not given) | 0.221 | > 16.8 | 0.141 | > 31 | 0.225 | > 23 | 0.138 | > 14.4 | 0.259 | > 33.3 | 0.106 | 3.75 | 0.287 | > 30.2 | 0.199 | > 33.3 | 0.131 | 2.88 | 0.666 | > 25.6
5 | O=[N+]([O-])/C=C/c1ccc(Cl)cc1[N+](=O)[O-] | 6.72 | 30.3 | 1.55 | 3.64 | 3.88 | 13.6 | 2.2 | 5.72 | 13.1 | 35.1 | 8.16 | > 100 | 3.04 | 13.4 | 4.15 | 16.7 | 2.65 | 5.91 | 4.49 | 14.9
6 | CC1(C)C2CCC13C(=O)C1OC3(C2)C2C(=O)c3c(ccc4c3ccc3ccccc34)C(=O)C12 (stereo not given) | > 60.1 | > 100 | > 100 | > 100 | > 61.1 | > 100 | > 53.5 | > 100 | > 66.3 | > 100 | > 56.1 | > 100 | > 100 | > 100 | 25.2 | > 89.2 | > 64.4 | > 100 | > 100 | > 100
